Inconclusive results are not listed.
Tested on: BDF1 mice, s.c. Lewis lung carcinoma, T/C %
Assay: NCI In Vivo Anticancer Drug Screen. Data for tumor model Lewis Lung Carcinoma (subcutaneous) in B6D2F1 (BDF1) mice
Description: The antitumor activity of compounds was measured in mice bearing transplantable tumors. Survival or tumor size were measured and the results are expressed as the measurement made in the treated group (T) divided by the measurement made in the vehicle treated control group (C). The tumor model used in this assay is Lewis Lung Carcinoma (subcutaneous) in B6D2F1 (BDF1) mice

[1] = endpoint: mean tumor weight, dose: 50.0 mg/kg/injection, schedule: Q01DX010 (sc), vehicle: steriod suspending solution, higher = larger tumour
[2] = endpoint: mean tumor weight, dose: 100.0 mg/kg/injection, schedule: Q01DX010 (sc), vehicle: steriod suspending solution, higher = larger tumour
[3] = endpoint: mean tumor weight, dose: 200.0 mg/kg/injection, schedule: Q01DX010 (sc), vehicle: steriod suspending solution, higher = larger tumour

SMILES: COC1C(OC(=O)c2ccc(C)[nH]2)C(O)C(Oc2ccc3c(O)c(NC(=O)c4ccc(O)c(CC=C(C)C)c4)c(=O)oc3c2Cl)OC1(C)C (stereo unspecified)
- T/C (endpoint: median survival time, dose: 0.38 mg/kg/injection, schedule: Q01DX009 (ip), vehicle: other, higher = longer survival): 113 % of control
- T/C (endpoint: median survival time, dose: 0.75 mg/kg/injection, schedule: Q01DX009 (ip), vehicle: other, higher = longer survival): 91 % of control
- T/C (endpoint: median survival time, dose: 3.0 mg/kg/injection, schedule: Q01DX007 (ip), vehicle: other, higher = longer survival): 88 % of control
- T/C (endpoint: median survival time, dose: 3.0 mg/kg/injection, schedule: Q01DX009 (ip), vehicle: other, higher = longer survival): 117 % of control
- T/C (endpoint: median survival time, dose: 6.0 mg/kg/injection, schedule: Q01DX007 (ip), vehicle: other, higher = longer survival): 93 % of control
- T/C (endpoint: median survival time, dose: 6.0 mg/kg/injection, schedule: Q01DX009 (ip), vehicle: other, higher = longer survival): 98 % of control
- T/C (endpoint: median survival time, dose: 12.0 mg/kg/injection, schedule: Q01DX007 (ip), vehicle: other, higher = longer survival): 98 % of control
- T/C (endpoint: median survival time, dose: 24.0 mg/kg/injection, schedule: Q01DX007 (ip), vehicle: other, higher = longer survival): 91 % of control
- T/C (endpoint: median survival time, dose: 24.0 mg/kg/injection, schedule: Q01DX009 (ip), vehicle: other, higher = longer survival): 88 % of control
- T/C (endpoint: median survival time, dose: 25.0 mg/kg/injection, schedule: Q01DX009 (ip), vehicle: other, higher = longer survival): 90 % of control
- T/C (endpoint: median survival time, dose: 48.0 mg/kg/injection, schedule: Q01DX007 (ip), vehicle: other, higher = longer survival): 107 % of control
- T/C (endpoint: median survival time, dose: 50.0 mg/kg/injection, schedule: Q01DX009 (ip), vehicle: other, higher = longer survival): 105 % of control

SMILES: CCN(CC)CC(C)Nc1ccc(C)c2sc3ccccc3c(=O)c12 (stereo unspecified)
- T/C (endpoint: mean tumor weight, dose: 10.0 mg/kg/injection, schedule: Q01DX011 (ip), vehicle: other, higher = larger tumour): 104 % of control
- T/C (endpoint: mean tumor weight, dose: 40.0 mg/kg/injection, schedule: Q01DX011 (ip), vehicle: other, higher = larger tumour): 68 % of control
- T/C (endpoint: mean tumor weight, dose: 160.0 mg/kg/injection, schedule: Q01DX011 (ip), vehicle: other, higher = larger tumour): 30 % of control

SMILES: CN1C(=O)C=CC1=O
- T/C (endpoint: median survival time, dose: 0.5 mg/kg/injection, schedule: Q02DX009 (ip), vehicle: saline, higher = longer survival): 113 % of control
- T/C (endpoint: median survival time, dose: 1.0 mg/kg/injection, schedule: Q02DX009 (ip), vehicle: saline, higher = longer survival): 103 % of control
- T/C (endpoint: median survival time, dose: 2.0 mg/kg/injection, schedule: Q02DX009 (ip), vehicle: saline, higher = longer survival): 100 % of control
- T/C (endpoint: median survival time, dose: 4.0 mg/kg/injection, schedule: Q02DX009 (ip), vehicle: saline, higher = longer survival): 94 % of control

SMILES: COc1cc(C=Nc2ccc(-n3ccnc3C)cc2)ccc1N(CCCl)CCCl
- T/C (endpoint: median survival time, dose: 2.5 mg/kg/injection, schedule: Q01DX009 (ip), vehicle: Klucel (hydroxypropylcellulose) (HPC), higher = longer survival): 116 % of control
- T/C (endpoint: median survival time, dose: 5.0 mg/kg/injection, schedule: Q01DX009 (ip), vehicle: Klucel (hydroxypropylcellulose) (HPC), higher = longer survival): 103 % of control
- T/C (endpoint: median survival time, dose: 10.0 mg/kg/injection, schedule: Q01DX009 (ip), vehicle: Klucel (hydroxypropylcellulose) (HPC), higher = longer survival): 113 % of control

SMILES: Cc1ccc2oc(-c3ccccc3)c(O)c(=O)c2c1
- T/C (endpoint: mean tumor weight, dose: 18.8 mg/kg/injection, schedule: Q01DX010 (ip), vehicle: saline, higher = larger tumour): 77 % of control
- T/C (endpoint: mean tumor weight, dose: 37.5 mg/kg/injection, schedule: Q01DX010 (ip), vehicle: saline, higher = larger tumour): 73 % of control
- T/C (endpoint: mean tumor weight, dose: 75.0 mg/kg/injection, schedule: Q01DX010 (ip), vehicle: saline, higher = larger tumour): 57 % of control
- T/C (endpoint: mean tumor weight, dose: 150.0 mg/kg/injection, schedule: Q01DX010 (ip), vehicle: saline, higher = larger tumour): 86 % of control

SMILES: CC(C)=CC(=O)OCC[N+](C)(C)C
- T/C (endpoint: median survival time, dose: 1.56 mg/kg/injection, schedule: Q01DX009 (ip), vehicle: saline, higher = longer survival): 96 % of control
- T/C (endpoint: median survival time, dose: 3.12 mg/kg/injection, schedule: Q01DX009 (ip), vehicle: saline, higher = longer survival): 103 % of control
- T/C (endpoint: median survival time, dose: 12.5 mg/kg/injection, schedule: Q01DX009 (ip), vehicle: saline, higher = longer survival): 103 % of control
- T/C (endpoint: median survival time, dose: 25.0 mg/kg/injection, schedule: Q01DX009 (ip), vehicle: saline, higher = longer survival): 113 % of control

SMILES: C=C(C)C(=O)O[C@H]1CC2=C[C@@H](C[C@@]3(C)O[C@@H]3[C@H]3OC(=O)C(=C)[C@@H]31)OC2=O
- T/C (endpoint: mean tumor weight, dose: 2.0 mg/kg/injection, schedule: Q01DX011 (ip), vehicle: saline, higher = larger tumour): 171 % of control
- T/C (endpoint: mean tumor weight, dose: 4.0 mg/kg/injection, schedule: Q01DX011 (ip), vehicle: saline, higher = larger tumour): 118 % of control
- T/C (endpoint: mean tumor weight, dose: 8.0 mg/kg/injection, schedule: Q01DX011 (ip), vehicle: saline, higher = larger tumour): 107 % of control

SMILES: COc1c(OC)c(OC)c2c(=O)cc(-c3ccc(OC(C)=O)cc3)oc2c1OC
- T/C [1]: 97 % of control
- T/C [2]: 74 % of control
- T/C [3]: 76 % of control
- T/C (endpoint: mean tumor weight, dose: 400.0 mg/kg/injection, schedule: Q01DX010 (sc), vehicle: steriod suspending solution, higher = larger tumour): 77 % of control

SMILES: COc1cc(-c2cc(=O)c3c(OC)c(OC)c(OC)c(OC)c3o2)cc(OC)c1OC
- T/C [1]: 87 % of control
- T/C [2]: 102 % of control
- T/C [3]: 97 % of control

SMILES: CO[C@H](C(=O)[C@@H](O)[C@@H](C)O)[C@@H]1Cc2cc3cc(OC4CC(OC5CC(O)C(O)C(C)O5)C(O)C(C)O4)c(C)c(O)c3c(O)c2C(=O)[C@H]1OC1CC(OC2CC(OC3CC(C)(O)C(O)C(C)O3)C(O)C(C)O2)C(O)C(C)O1 (stereo partly specified)
- T/C (endpoint: median survival time, dose: 0.25 mg/kg/injection, schedule: Q01DX009 (ip), vehicle: saline, higher = longer survival): 116 % of control

SMILES: CC(=O)c1ccc(-c2ccccc2)cc1
- T/C (endpoint: mean tumor weight, dose: 125.0 mg/kg/injection, schedule: Q01DX011 (ip), vehicle: other, higher = larger tumour): 57 % of control
- T/C (endpoint: mean tumor weight, dose: 222.0 mg/kg/injection, schedule: Q01DX011 (ip), vehicle: other, higher = larger tumour): 174 % of control
- T/C (endpoint: mean tumor weight, dose: 250.0 mg/kg/injection, schedule: Q01DX011 (ip), vehicle: other, higher = larger tumour): 73 % of control
- T/C (endpoint: mean tumor weight, dose: 333.0 mg/kg/injection, schedule: Q01DX011 (ip), vehicle: other, higher = larger tumour): 118 % of control
- T/C (endpoint: mean tumor weight, dose: 500.0 mg/kg/injection, schedule: Q01DX011 (ip), vehicle: other, higher = larger tumour): 86 % of control

SMILES: CC1OC(=O)C(C(C)C)NC(=O)C(C(C)C)OC(=O)C(C(C)C)NC(=O)C(C)OC(=O)C(C(C)C)NC(=O)C(C(C)C)OC(=O)C(C(C)C)NC(=O)C(C)OC(=O)C(C(C)C)NC(=O)C(C(C)C)OC(=O)C(C(C)C)NC1=O (stereo unspecified)
- T/C (endpoint: median survival time, dose: 0.31 mg/kg/injection, schedule: Q01DX009 (ip), vehicle: saline with Tween-80, higher = longer survival): 100 % of control
- T/C (endpoint: median survival time, dose: 0.62 mg/kg/injection, schedule: Q01DX009 (ip), vehicle: saline with Tween-80, higher = longer survival): 103 % of control
- T/C (endpoint: median survival time, dose: 0.75 mg/kg/injection, schedule: Q01DX009 (ip), vehicle: Klucel (hydroxypropylcellulose) (HPC), higher = longer survival): 94 % of control
- T/C (endpoint: median survival time, dose: 1.25 mg/kg/injection, schedule: Q01DX009 (ip), vehicle: saline with Tween-80, higher = longer survival): 109 % of control
- T/C (endpoint: median survival time, dose: 1.5 mg/kg/injection, schedule: Q01DX009 (ip), vehicle: Klucel (hydroxypropylcellulose) (HPC), higher = longer survival): 86 % of control
- T/C (endpoint: median survival time, dose: 2.5 mg/kg/injection, schedule: Q01DX009 (ip), vehicle: saline with Tween-80, higher = longer survival): 86 % of control
- T/C (endpoint: median survival time, dose: 3.0 mg/kg/injection, schedule: Q01DX009 (ip), vehicle: Klucel (hydroxypropylcellulose) (HPC), higher = longer survival): 101 % of control
- T/C (endpoint: median survival time, dose: 6.0 mg/kg/injection, schedule: Q01DX009 (ip), vehicle: Klucel (hydroxypropylcellulose) (HPC), higher = longer survival): 100 % of control
- T/C (endpoint: median survival time, dose: 8.0 mg/kg/injection, schedule: Q01DX009 (ip), vehicle: saline with Tween-80, higher = longer survival): 114 % of control
- T/C (endpoint: median survival time, dose: 12.0 mg/kg/injection, schedule: Q01DX009 (ip), vehicle: saline with Tween-80, higher = longer survival): 112 % of control
- T/C (endpoint: median survival time, dose: 15.0 mg/kg/injection, schedule: Q04DX003 (ip), vehicle: saline with Tween-80, higher = longer survival): 106 % of control
- T/C (endpoint: median survival time, dose: 20.0 mg/kg/injection, schedule: Q01DX001 (ip), vehicle: saline with Tween-80, higher = longer survival): 123 % of control
- T/C (endpoint: median survival time, dose: 20.0 mg/kg/injection, schedule: Q04DX003 (ip), vehicle: saline with Tween-80, higher = longer survival): 112 % of control
- T/C (endpoint: median survival time, dose: 30.0 mg/kg/injection, schedule: Q01DX001 (ip), vehicle: saline with Tween-80, higher = longer survival): 112 % of control
- T/C (endpoint: median survival time, dose: 30.0 mg/kg/injection, schedule: Q04DX003 (ip), vehicle: saline with Tween-80, higher = longer survival): 115 % of control
- T/C (endpoint: median survival time, dose: 45.0 mg/kg/injection, schedule: Q01DX001 (ip), vehicle: saline with Tween-80, higher = longer survival): 119 % of control

SMILES: CS(=O)(=O)OC[C@@H](O)[C@@H](O)COS(C)(=O)=O
- T/C (endpoint: mean tumor weight, dose: 62.5 mg/kg/injection, schedule: Q01DX011 (ip), vehicle: saline, higher = larger tumour): 71 % of control
- T/C (endpoint: mean tumor weight, dose: 250.0 mg/kg/injection, schedule: Q01DX011 (ip), vehicle: saline, higher = larger tumour): 115 % of control
- T/C (endpoint: mean tumor weight, dose: 500.0 mg/kg/injection, schedule: Q01DX011 (ip), vehicle: saline, higher = larger tumour): 94 % of control
- T/C (endpoint: mean tumor weight, dose: 750.0 mg/kg/injection, schedule: Q01DX011 (ip), vehicle: other, higher = larger tumour): 100 % of control
- T/C (endpoint: mean tumor weight, dose: 1000.0 mg/kg/injection, schedule: Q01DX011 (ip), vehicle: other, higher = larger tumour): 98 % of control

SMILES: CNC1C(OC2C(OC3C(O)C(O)C(N=C(N)N)C(O)C3N=C(N)N)OC(C)C2(O)C=O)OC(CO)C(O)C1O (stereo unspecified)
- T/C (endpoint: median survival time, dose: 50.0 mg/kg/injection, schedule: Q01DX009 (ip), vehicle: water, higher = longer survival): 95 % of control
- T/C (endpoint: median survival time, dose: 100.0 mg/kg/injection, schedule: Q01DX009 (ip), vehicle: water, higher = longer survival): 102 % of control
- T/C (endpoint: median survival time, dose: 200.0 mg/kg/injection, schedule: Q01DX009 (ip), vehicle: water, higher = longer survival): 105 % of control

SMILES: CC(C)=CCCC(C)CCO (stereo unspecified)
- T/C (endpoint: mean tumor weight, dose: 100.0 mg/kg/injection, schedule: Q01DX011 (ip), vehicle: carboxymethylcellulose (CMC), higher = larger tumour): 72 % of control

Reference: PubChem BioAssay AID270 (DTP/NCI, 2004)
